One molecule from US9469616B2, “Cyclic compounds and methods of making and using the same” (Cellceutix Corporation, priority 2011, dated 2016) can be followed below.

A word on the MIC50: it is an inhibitory concentration at the 50% level, which refers to growth in some studies and to a panel of isolates in others. Broadly, the HC50 is the concentration giving 50% haemolysis. Lower therefore signals more damage to red cells. Usually EC50 stands for the concentration that produces a half-maximal response. Higher therefore signals a less potent agent. What is called MIC is the smallest concentration in the dilution series that meets the test's criterion for growth inhibition.

The subject of series [1] is P. aeruginosa (10145). The series is described as follows: MIC assay (Table 1). It is filed as cell-based. The settings on record: Pseudomonas aeruginosa, isolate 10145.
Series [2] relates to S. aureus (27660). The series can be described thus: MIC assay (Table 1). The settings on record: Staphylococcus aureus, isolate 27660. In kind it is cell-based.
Series [3] relates to E. coli (25922). The series is described as follows: MIC assay (Table 1). In kind it is cell-based. The settings on record: Escherichia coli, isolate 25922.
For series [4], the system named is human RBCs. It is filed as cell-based. The settings on record: 1 h, pH 7.4. An excerpt:
(§1) A new series of aryl compounds was designed to evaluate the effect of charge and aromatic group hydrophobicity on the biological activity while still maintaining an amphiphilic topology. Four and six cationic charges were investigated, and three different central rings were used to tune the overall hydrophobicity: benzene, naphthalene, and phenylbenzene. The hydrophobicities of the aryl compounds were quantified using reversed-phase HPLC retention times (Rt). The antimicrobial activities (expressed as minimum inhibitory concentration (MIC)) of these compounds were tested against four pathogens, including both Gram-negative and Gram-positive bacteria, and their hemolysis (evaluated in terms of HC50, the lowest concentration that causes 50% hemolysis of red blood cells (RBCs)) was tested against human RBCs.
Cytotoxicity of the compounds is also evaluated in a hemolysis assay using human erythrocytes. Pooled whole human blood is centrifuged to separate the red blood cells (RBC). The isolated RBCs are rinsed and diluted in Tris-buffered saline (TBS buffer, pH 7.4) to obtain a 0.22% RBC stock suspension. 5 μL of a Compound stock solution is added to 45 μL of RBC suspension and incubated with shaking for 1 hour at 37° C. At the conclusion of the incubation time, samples are centrifuged and 30 μL of the supernatant is added to 100 μL of water. OD414 measurements are read for hemoglobin concentration. The bee venom peptide melittin is used as a positive control. EC50 values are determined as described above.
Cytotoxicity is also evaluated in a hemolysis assay using isolated human erythrocytes. Pooled whole human blood is centrifuged to separate the red blood cells (RBC). The isolated RBCs are rinsed and diluted in Tris-buffered saline (TBS buffer, pH 7.4) to obtain a 0.22% RBC stock suspension. […] OD405 measurements are read for hemoglobin concentration. […] EC50 values are determined using a four parameter logistic equation: Y=Bottom+(Top−Bottom)/(1+10^((Log EC50−X)*HillSlope)).

The subject of series [5] is NIH/3T3 cells. The series is described as follows: Cytotoxicity colorimetric assay. In kind it is cell-based. The settings on record: Mus musculus, NIH3T3, 1 h, one hour incubation in serum-free media. As for the experimental part: Cytotoxicity of the compounds are evaluated in a colorimetric assay using a transformed human liver cell line (HepG2, HB-8065) and an embryonic mouse cell line (NIH/3T3 cells, CRL-1658). This assay measures the bioreduction of a novel tetrazolium compound to a soluble formazan product by viable cells. HepG2 cells are seeded in 96 well plates at 2×10^4 cells/well in MEM medium with 10% fetal bovine serum (FBS) 24 hours prior to use. NIH/3T3 cells are seeded in 96 well plates at 2×10^4 cells/well in DMEM medium with 10% bovine calf serum (BCS) 24 hours prior to use. Cell monolayers are rinsed in serum-free media and incubated for one hour with a Compound in serum-free media. After incubation, the media is replaced with serum supplemented media and live cells are measured using the Cell Titer 96 Aqueous […] Assay kit (Promega, Madison, Wis.). EC50 values are determined using a four parameter logistic equation: Y=Bottom+(Top−Bottom)/(1+10^((Log EC50−X)*HillSlope)). […] Data is expressed as EC50 in μg/ml. Cytotoxicity is evaluated in a colorimetric assay using a transformed human liver cell line (HepG2, HB-8065) and an embryonic mouse cell line (NIH/3T3 cells, CRL-1658). This assay measures the bioreduction of a novel tetrazolium compound to a soluble formazan product by viable cells. HepG2 cells are seeded in 96 well plates at 3×10^4 cells/well in MEM medium with 10% fetal bovine serum (FBS) 24 hours prior to use. NIH/3T3 cells are seeded in 96 well plates at 2×10^4 cells/well in DMEM medium with 10% bovine calf serum (BCS) 24 hours prior to use. Cell monolayers are rinsed in serum-free media and incubated for one hour with test agent in serum-free media. After incubation, the media is replaced with serum supplemented media and live cells are measured using the Cell Titer 96 Aqueous […] Assay kit (Promega, Madison, Wis.). EC50 values are determined using a four parameter logistic equation: Y=Bottom+(Top−Bottom)/(1+10^((Log EC50−X)*HillSlope)).

Series [6] deals with RAW 264.7 cells. The series can be described thus: Cytokine production in RAW 264.7 cells (ELISA). In kind it is cell-based, murine. A general note: In an ELISA, binding on a coated surface is turned into a signal by an enzyme label.
Series [7] deals with Staphylococcus aureus. The series is described as follows: Antimicrobial activity (MIC) of aryl compounds (Table 2). It is filed as cell-based.
From the text: as §1

The test system of series [8] is Escherichia coli. The description is as above. It is filed as cell-based.
From the text: as §1

SMILES strings stand for the structures. Converted amounts (≈) assume the structure as drawn. “And” between values parts separate entries of the source, which are not always exact repeats. Equal entries are not always repeated.

For the molecule `NCCCOc1cc(-c2ccc3ccc(-c4cc(OCCCN)c(OCCCN)c(OCCCN)c4)cc3c2)cc(OCCCN)c1OCCCN` [Compound 116], the values for the MIC50 in series [1], in series [2] and in series [3] were 25 µg/mL (≈ 34.8 µM), 3.13 µg/mL (≈ 4.35 µM) and 3.13 µg/mL (≈ 4.35 µM), respectively. For the same molecule, the HC50 in series [4] worked out at 656 µg/mL. Also, the midpoint of the response in series [5], the EC50, lay at 165 µg/mL (≈ 230 µM). In series [6] (5.0 μg/mL preincubation 1 hour, LPS 100 ng/mL 18 hours, FIG. 1B), the “LPS-induced TNF production” value is “increased”. Moreover, the “LPS-induced IL-6 production” value in series [6] (5.0 μg/mL preincubation 1 hour, LPS 100 ng/mL 18 hours, FIG. 1C) is recorded as “increased”. Further, the “LPS-induced IL-10 production” value in series [6] (5.0 μg/mL preincubation 1 hour, LPS 100 ng/mL 18 hours, FIG. 1D) is “inhibited the production of the anti-inflammatory cytokine IL 10 to background levels”. In addition, the TNF production entry in series [6] (5.0 μg/mL, without LPS, FIG. 1A) is recorded as “induced TNF production”. Further, in series [6] (preincubated with mouse rIL-10 50 ng/mL, 5.0 μg/mL compound, LPS 100 ng/mL, FIG. 2), the “LPS-induced TNF production with externally added rIL-10” value is “abrogation of Compound 116's capacity to enhance TNF production”. Moreover, the “TNF level with externally added rIL-10” value in series [6] (preincubated with mouse rIL-10 50 ng/mL, 5.0 μg/mL compound, without LPS, FIG. 2) is given as “only a slight decrease in the overall TNF level”. For the same molecule, the “Selectivity (HC50/MIC) S. aureus” value in series [7] (HC50/MIC) was 200 and 209.6. Moreover, the “selectivity, times higher than the selectivity of MSI-78” value in series [7] (S. aureus and E. coli, relative to MSI-78) is about 20 times. The MIC in series [7] (Staphylococcus aureus, Table 2, read-out: MIC S. aureus) turned out to be 3.13 µg/mL (≈ 4.35 µM); in series [8] (Escherichia coli, Table 2), 3.13 µg/mL (≈ 4.35 µM). Also, the “MIC S. aureus” value in series [7] (Table 2) is given as “≈ 3 μg/ml”. For the same molecule, the “Selectivity (HC50/MIC) E. coli” value in series [8] (HC50/MIC) is 200 and 209.6. In addition, the “MIC E. coli” value in series [8] (Table 2) is reported as “≈ 3 μg/ml”.
